From PubChem BioAssay (NCI)
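1) Cells in 96-well plates. 2) Compound, 48 h, 5 concentrations. 3) Linear interpolation between surrounding doses. 4) Unreached endpoint = highest concentration. TGI is the concentration that stops growth completely.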

Assays:
Assay in all cases: growth of human tumour cells (NCI), 48 h
[1] = test system: A498 renal
[2] = test system: HOP-92 NSCLC
[3] = test system: HT29 colon
[4] = test system: MALME-3M melanoma
[5] = test system: NCI-H23 lung
[6] = test system: RPMI-8226 leukemia
[7] = test system: SF-539 CNS
[8] = test system: SN12C renal
[9] = test system: SNB-19 CNS
[10] = test system: SW-620 colon

SMILES	TGI [1]	TGI [2]	TGI [3]	TGI [4]	TGI [5]	TGI [6]	TGI [7]	TGI [8]	TGI [9]	TGI [10]
Nc1ccc(-c2nc3ccccc3s2)cc1Cl	4.17 µM	> 100 µM	> 100 µM	> 100 µM	> 100 µM	> 100 µM	> 100 µM	> 100 µM	> 100 µM	> 100 µM
O=C(c1ccccc1)c1ccc2nc(-c3c(Cl)c(Cl)c(Cl)c(Cl)c3-c3nnc(-c4ccccc4)o3)[nH]c2c1	78.4 µM	> 100 µM	> 100 µM	> 100 µM	> 100 µM	> 100 µM	> 100 µM	81.7 µM	> 100 µM	> 100 µM
Cc1cc(S(=O)(=O)Nc2nc3ncccc3[nH]2)c(S)cc1Cl	> 100 µM	> 100 µM	> 100 µM	> 100 µM	> 100 µM	> 100 µM	> 100 µM	> 100 µM	> 100 µM	> 100 µM
O=C1CCCNn2c(nc3ncccc3c2=O)N1	> 100 µM	> 100 µM	> 100 µM	> 100 µM	> 100 µM	> 100 µM	> 100 µM		> 100 µM	> 100 µM
O=C(CCN1CCOCC1)/C(=C/c1ccccc1)c1ccccc1	23.3 µM	13 µM	17.6 µM	8.74 µM	14.1 µM	8.05 µM	9.31 µM	14.5 µM	23.4 µM	6.9 µM
FC(F)(F)c1cc(N(C2c3ccccc3C=Cc3ccccc32)P(Cl)Cl)cc(C(F)(F)F)c1	56.8 µM	30.4 µM	> 100 µM	36 µM	97.7 µM	51.2 µM	66.6 µM	32.7 µM	56.8 µM	82.6 µM
CCCCc1ccc(Nc2ncc3ncn(COCCO)c3n2)cc1	> 100 µM	92.8 µM	50 µM	68.4 µM	> 100 µM	50 µM	> 100 µM	> 100 µM	> 100 µM	> 100 µM
CCOC(=O)C1CC(C(=O)c2ccccc2)N2c3ccccc3-c3ccccc3C12 (stereo not drawn)	> 100 µM	> 100 µM	> 100 µM	> 100 µM	> 100 µM	40.8 µM	> 100 µM	> 100 µM	> 100 µM	> 100 µM
O=C(O)CCC(=O)OCN1C(=O)C2C3C=CC(C2C1=O)C1C2C(=O)N(COC(=O)CCC(=O)O)C(=O)C2C31 (stereo not drawn)	> 100 µM	> 100 µM	> 100 µM	> 100 µM	> 100 µM	52.5 µM	> 100 µM	> 100 µM	> 100 µM	> 68.4 µM
CCOC(=O)/C(C(N)=O)=C(\O)C(=O)/C(Br)=C(\O)c1ccccc1	> 100 µM	53.7 µM	> 70.8 µM	29.2 µM	37.3 µM	29.4 µM	36.5 µM	34.2 µM	> 69.1 µM	35.2 µM
CC(C)(C)C1CCC2c3c([nH]c4ccccc34)C3C(=O)N(c4ccc(C#N)cc4)C(=O)C3C2C1 (stereo not drawn)	35.5 µM	22.6 µM	20.3 µM	37.5 µM	23.6 µM	> 100 µM	43.2 µM	21.4 µM	> 100 µM	39.7 µM
O[C@@H]1C=C[C@]23CCN(Cc4cc5c(cc42)OCO5)[C@@H]3C1	> 100 µM	> 100 µM	> 100 µM	> 100 µM	> 100 µM	> 100 µM	> 100 µM	> 100 µM	> 100 µM	> 100 µM
Cn1cccc1-c1ccc(-c2ccc(CO)[se]2)[se]1	> 100 µM	> 100 µM	> 100 µM	> 100 µM	> 90 µM	47.7 µM	> 82.9 µM	> 100 µM	> 100 µM	> 100 µM
C1=C(c2ccccc2)C(N2CCOCC2)Oc2ccccc21 (stereo not drawn)	92.3 µM	> 100 µM	> 100 µM	> 100 µM	> 100 µM	> 100 µM	> 100 µM	> 100 µM	> 100 µM	> 100 µM
Cc1c(C(=O)c2ccc(N)c3ccccc23)c2ccccc2n1CCN1CCOCC1	81.8 µM	75.6 µM	72.5 µM	61.8 µM	> 100 µM	> 61.1 µM	50.8 µM	> 94.1 µM	> 100 µM	> 100 µM
CSC(=S)Nc1cc(C)cc(C)n1	> 100 µM	> 31.6 µM	> 31.6 µM	> 31.6 µM	> 31.6 µM	> 31.6 µM	> 100 µM	> 31.6 µM	> 31.6 µM	> 31.6 µM
C[C@]12CC[C@H]3[C@@H](CCC4=CC(=O)C=C[C@@]43OC(=O)C(F)(F)F)[C@@H]1CCC2=O	> 100 µM	> 100 µM	> 100 µM	> 100 µM	> 100 µM	> 100 µM	> 100 µM	> 100 µM	> 100 µM	> 100 µM
CC1CC[C@@]2(OC1)O[C@H]1[C@H](O)[C@H]3[C@@H]4CC[C@H]5C[C@@H](OC6OC(CO)C(OC7OC(CO)C(O)C(OC8OCC(O)C(O)C8O)C7OC7OC(CO)C(O)C(O)C7OC7OC(CO)C(O)C(O)C7O)C(O)C6O)[C@H](O)C[C@]5(C)[C@H]4CC[C@]3(C)[C@H]1[C@@H]2C (stereo partly drawn)	> 10 µM	> 10 µM	> 10 µM	> 10 µM	> 10 µM	5.14 µM	> 10 µM	> 10 µM	> 10 µM	> 10 µM
COc1ccc(C#Cn2nnc3ccccc32)cc1	> 100 µM	> 100 µM	> 100 µM	> 100 µM	> 100 µM	85.1 µM	> 100 µM	> 100 µM	> 100 µM	> 100 µM

SMILES	TGI [1]	TGI [2]	TGI [3]	TGI [4]	TGI [5]	TGI [6]	TGI [7]	TGI [8]	TGI [9]	TGI [10]
O=C(/C(=C(/O)c1ccccc1)c1nc2ccccc2sc1=O)c1ccccc1	> 100 µM	> 100 µM	72.3 µM	> 100 µM	68 µM	41.8 µM	75 µM	90.5 µM	> 100 µM	> 100 µM
CC(=O)n1cc(C2CC23N=C(c2ccccc2)OC3=O)c2ccccc21 (stereo not drawn)	56.7 µM	52.5 µM	39.9 µM	58.2 µM	42 µM	26.2 µM	41.2 µM	31.9 µM	> 89.7 µM	56.7 µM
O=C(O)CSc1ccccc1C(=O)O	> 100 µM	> 100 µM	> 100 µM	> 100 µM	> 100 µM	> 100 µM	> 100 µM	> 100 µM	> 100 µM	> 100 µM
N#Cc1c(-c2ccc(Cl)cc2)cc(-c2ccc(Nc3ccnc4cc(Cl)ccc34)cc2)[nH]c1=O	> 88.9 µM	61.2 µM	> 100 µM	> 100 µM	> 75.9 µM	> 100 µM	> 100 µM		> 96.7 µM	> 100 µM
CC(C(=O)OCc1ccccc1)N(Cc1ccccc1)Cc1ccccc1 (stereo not drawn)	> 100 µM	> 100 µM	> 100 µM	> 100 µM	> 100 µM	> 100 µM	> 100 µM	> 100 µM	> 100 µM	> 100 µM
C1=NCCNCCNCCN=Cc2ccc(cc2)OCc2cccc(n2)COc2ccc1cc2	> 100 µM	> 100 µM	> 100 µM	> 100 µM	> 100 µM	> 100 µM	> 100 µM	> 100 µM	> 100 µM	> 100 µM
C=C(C(=O)O[C@H]1C/C(C)=C/CC/C(CO)=C/[C@H]2C(=O)OC(=C)[C@H]12)C(O)CO (stereo partly drawn)	32.7 µM	31.4 µM	38.7 µM	10.7 µM	32.7 µM	4.95 µM	10.4 µM	30.6 µM	43.3 µM	14.4 µM
CC(=O)O[C@H]1CC[C@@]2(C)C(=CC[C@@H]3[C@@H]2CC[C@]2(C)C(=N/O)/C(=C\c4ccccc4)C[C@@H]32)C1	33 µM	88.5 µM	> 100 µM	24.7 µM	> 100 µM	> 100 µM	83.3 µM	38.1 µM	> 100 µM	> 60.9 µM
NS(=O)(=O)c1nc(S(=O)(=O)O)c2[nH]cnc2n1	> 100 µM	> 100 µM	> 100 µM	> 100 µM	> 100 µM	> 100 µM	> 100 µM	> 100 µM	> 100 µM	> 100 µM
C#CC(O)(c1nc2ccccc2s1)c1nc2ccccc2s1	35.2 µM	38.2 µM	77.6 µM	> 100 µM	56.1 µM	76.8 µM	36.7 µM	42.6 µM	> 100 µM	> 100 µM
COC(=O)[C@@H]1CS(=O)(=O)C(C(C)C)N1C(C)=O (stereo partly drawn)	> 100 µM	> 100 µM	> 100 µM	> 100 µM	> 100 µM	> 100 µM	> 100 µM	> 100 µM	> 100 µM	> 100 µM
NNC(=O)Nc1nc2ccc(NN)cc2[nH]1	77.3 µM	57.3 µM	> 100 µM	> 100 µM	> 100 µM	26.7 µM	28.5 µM	> 100 µM	> 100 µM	67.4 µM
c1nc(NCCc2cnc[nH]2)c2[nH]cnc2n1	> 100 µM	> 100 µM	> 100 µM	> 100 µM	> 100 µM	> 100 µM	> 100 µM	> 100 µM	> 100 µM	> 100 µM
O=C1NC(=O)c2ccccc2/C1=C/c1ccc2c(c1)OCO2	> 100 µM	> 100 µM	44.8 µM	> 100 µM	46.8 µM	74.3 µM	46.7 µM	47.1 µM	> 100 µM	> 100 µM
O=C(Nc1sccc1S(=O)(=O)c1ccc(Cl)cc1)c1ccc(F)cc1F	51.5 µM	42.5 µM	> 100 µM	96.4 µM	54.9 µM	> 100 µM	30.5 µM	> 100 µM	48.8 µM	> 100 µM
Cc1ccc(S(=O)(=O)N2C[C@@H]3CC[C@]4(CO[Si](C)(C)C(C)(C)C)N[C@@H](c5ccccc5)[C@H]2[C@H]34)cc1	> 100 µM	28.7 µM	42.6 µM	46.3 µM	> 100 µM	46.8 µM	> 100 µM	76.2 µM	> 100 µM	> 100 µM
CCCC[C@@H](C)/C=C1\CN2CCC[C@H]2[C@@](C)(OCc2ccccc2)[C@@H]1O	> 50 µM	> 50 µM	> 50 µM	> 50 µM	> 50 µM	> 23.7 µM	49.7 µM	> 50 µM	> 50 µM	> 50 µM
CN1/C(=C/C=C/C=C/C=C2C(=O)c3ccccc3C2=O)C(C)(C)c2ccccc21	65.2 µM	58 µM	> 100 µM	94.1 µM	> 100 µM	> 100 µM	91.3 µM	> 100 µM	> 100 µM	> 100 µM
